Measurements published in patent US20260097111A1, “ETHER LIPIDS FOR HYPERACTIVATION OF MAMMALIAN DENDRITIC CELLS” (priority 2022, published 2026).
Entries after “also recorded” stand apart in the source; their conditions may differ. Read-outs that look alike come from different tables or passages of the source.

Key:
[1] = tested on: human moDCs; test: IL-6 secretion by human moDCs; type: cell-based
[2] = Serum chemokines and cytokines after SC injection; type: in vivo, mice; settings: mouse, in vivo, sc
Description: Lipid Preparation. […] Lipids were used for chemical injections or DC treatment within one hour of their preparation.
Subcutaneous (SC) Injection. Mice were placed under Isoflurane for a few min for anesthesia. Tubes containing the chemicals were vortexed for 30 seconds, then loaded with a 1 mL Sub-Q syringe.
Blood Collection. Mice were placed under Isoflurane for approximately 10 min for anesthesia. Using a 21G needle, mice were gently poked through the skin to the submandibular space to induce bleeding. Five-Six drops were collected in a mini collect K2EDTA blood collection tube. Blood samples were transported back to Corner Therapeutics lab on ice. The blood was then centrifuged at 1500×g for 5 min. After centrifugation, blood was collected into a 96-well round bottom plate and stored at −80° C.
Measurement of Serum Chemokines and Cytokines. Secreted cytokines were measured in the supernatant by cytokine bead array using the LEGENDplex™ Mouse Murine Proinflammatory Chemokine, Murine Cytokine Release Syndrome Legendplex and LEGENDplex™ Mouse Cytokine Panel 2 (Biolegend) according to the manufacturer's protocol. Data were collected using a Quanteon Novocyte flow cytometer and analyzed using the cloud-based software provided by Biolegend.

[3] = tested on: human moDCs; settings: for IFNα2: R848 stimulation, FIG. 33B
[4] = tested on: human moDC; test: IL-1β ELISA, human moDC treated with R848, DGP, MCC950; type: cell-based; settings: only R848 2.85 μM, donor HD94
Description: Monocyte Isolation, Storage, and Differentiation into moDC. Human leukapheresis blood products were freshly obtained from AllCells via same day or overnight shipping at 4° C. Miltenyi StraightFrom Leukopak CD14 MicroBead isolation kits were used according to manufacturer instructions to isolate CD14+ monocytes. Briefly, leukopaks ranging in quantity from 5×10^9 to 1×10^10 total nucleated cells were evenly aliquoted into 50 mL conical tubes. Cells were incubated with CD14 microbeads and then loaded on the MultiMACS using the program “Possel2”. After washing out the negative population, CD14+ cells were eluted from the columns and counted. An aliquot of monocytes was used to stain for purity of cells to ensure that isolated live cells were […] CD11c+CD14+ by flow cytometry. […] Vials were placed in CoolCell freezing containers and placed in a −80° C. freezer and stored no longer than 1 week. Frozen cells were transferred for long-term storage to the vapor phase of a liquid nitrogen freezer until use.
To differentiate monocytes into moDC, vials of cells were taken out of the liquid nitrogen freezer and quickly thawed in a 37° C. water bath. Cells were diluted ten-fold in warmed R10++ media containing 50 units/mL benzonase. R10++ media was composed of RPMI 1640 media containing 10% fetal bovine serum, 50 units/mL penicillin, […] streptomycin, 2 mM L-glutamine, 1 mM sodium pyruvate, […] beta-mercaptoethanol, 10 mM HEPES, and 1% Gibco MEM non-essential amino acids. After gentle mixing by inversion of tubes, cells were incubated at 37° C. for 10 min. Cells were pelleted at 400×g for 5 min and supernatant was aspirated. Cells were resuspended in R10++ media and counted on the MoxiGo by diluting an aliquot in PBS containing a final concentration of 2.5 μg/mL propidium iodide. Cells were plated in T75 culture flasks at 3-6×10^7 cells per flask in a total of 20 mL R10++ media containing a final concentration of 50 ng/mL GM-CSF and 25 ng/mL IL-4. Three days after the start of culture, an additional 10 mL R10++ containing 50 ng/mL GM-CSF and 25 ng/mL IL-4 was added to each flask.
Six days after start of differentiation. R10++ media containing cells were placed into 50 mL conical tubes. Flasks were washed with an additional 10 mL PBS and also collected. […] Cells were resuspended in R10++ media and counted on the MoxiGo by diluting an aliquot in PBS containing a final concentration of 2.5 μg/mL propidium iodide. Cells were then adjusted to 1×10^6 cells/mL in R10++ media.
moDC Treatment. Human moDC were plated at 1×10^5 cells/well in 96-well flat-bottom tissue culture plates in R10++ media by adding 100 μL of cells per well. To each well, a 25 μL solution of R10++ containing 400 ng/mL GM-CSF and 200 ng/mL IL-4 was added.
Lyophilized R848 stocks were prepared as described above and frozen at −80° C. An aliquot of frozen R848 was thawed and further diluted to 11.4 μM in R10++ (4 μg/mL R848). Cell culture conditions receiving R848 treatment had 50 μL added to wells. For wells not receiving R848, 50 μL R10++ was added to wells. Lyophilized MCC950 was prepared as described above and stored at −20° C. MCC950 was further diluted to 40 uM in a prepared R10++ solution containing 11.4 μM R848. Cells receiving R848 and MCC950 treatment had 50 μL added to wells. Final concentrations of R848 and MCC950 in a total 200 μL volume were respectively 2.85 μM and 10 μM.
A4.44% solution of KP407 dissolved in sterile, distilled water was prepared at a temperature of 4° C. […]

[5] = Solubility observations; type: physicochemical
[6] = tested on: human monocyte-derived dendritic cells (moDCs); test: IL-1β secretion by human moDCs treated with lipid and R848; type: cell-based; settings: for IL-1β secretion: human moDCs
Description: (§1) Human monocytes were isolated from Leukopaks purchased from Miltenyi using the StraightFrom Leukopak CD14 microbead kit (Miltenyi). Isolations were completed following manufacturer's instructions. Monocytes were then aliquoted and frozen in fetal bovine serum containing 10% dimethyl sulfoxide. For studies with monocyte-derived dendritic cell (moDC) cultures, monocytes were thawed and cultured in RPMI medium containing 10% FBS, 50 units/mL penicillin, […] streptomycin, 2 mM L-glutamine, 1 mM sodium pyruvate, […] beta-mercaptoethanol, 10 mM HEPES, and Gibco MEM non-essential amino acids (R10 media). To differentiate monocytes into moDCs, recombinant human GM-CSF (50 ng/mL) and IL-4 (25 ng/mL) were added to R10 media. Cells were cultured for 6 days with GM-CSF and IL-4, with an additional cell feeding with R10 containing GM-CSF and IL-4 on day 3.
Six days after differentiation, moDC were collected and counted. Cells were plated into 96-well flat-bottom plates at 1×10^5 cells/well. Cells were treated with or without 1 μg/mL R848 (final) and with or without a hyperactivating lipid (or vehicle control). In some experiments, MCC950, an inhibitor of the NLRP3 inflammasome, was added at a final concentration of 10 uM. In some experiments, nigericin, which causes NLRP3 inflammasome activation and subsequent pyroptosis, was used as a positive control at 20 uM. Cells and stimuli totaled a final volume of […].
Lipid stocks were then further diluted in PBS to treat cells.
(§2) After an overnight incubation, cells and culture supernatant were used for downstream readouts. One hundred and fifty microliters of cell supernatant were collected. Viability was measured using the CellTiter-Glo assay (Promega) which measures ATP content from cells. Fifty microliters of CellTiter-Glo reagent were added to 50 μL of cells. Luminescence was quantified on a SpectraMax m5e plate reader using an integration time of 500 milliseconds. Viability data were set relative to control conditions where cells were treated with only R848. To measure IL-1β secretion, the human IL-1β Lumit kit (Promega) was used to assay cell culture supernatant. Culture supernatant samples were incubated with enzyme-linked antibodies in a 384-well plate for 1 hour before addition of luminescent substrate. Samples were measured for luminescence with an integration time of 500 milliseconds. IL-1β concentrations of samples was determined by interpolation from a standard curve using 4-parameter logistic regression analysis. Studies were performed on three different human donor samples, and each biological condition was tested in triplicate. Graphed data represent means from each donor.
as §1, with “Human moDC Production. Human” for “Human”, “(Miltenyi) according to the” for “(Miltenyi). Isolations were completed following”, “To differentiate” for “For studies with”, “pyruvate, and” for “pyruvate,”, “beta-mercaptoethanol” for “beta-mercaptoethanol, 10 mM HEPES, and Gibco MEM non-essential amino acids”
Hyperactivating Lipid Formulation—Compound 10. Lipid stocks were formulated at 200 μg/mL lipid in 5% Kolliphor P407 (KP407) in PBS.

[7] = tested on: human moDCs; test: Cell viability of human moDCs (CellTiter-Glo); type: cell-based; settings: human moDCs, 20.6 μM lipid; FIG. 19
Description: as §2
Measurement of Cytokine Secretion and Cell Viability. After an overnight incubation, cells and culture supernatant were used for downstream readouts. One hundred and fifty microliters of cell culture supernatant were collected. Viability was measured using the CellTiter-Glo assay (Promega) which measures ATP content from cells. Fifty microliters of CellTiter-Glo reagent were added to 50 μL of cells. Luminescence was quantified on a SpectraMax m5e plate reader using an integration time of 500 milliseconds. Viability data were set relative to control conditions where cells were treated with only R848. To measure IL-1β secretion, the human IL-1β Lumit kit (Promega) was used. […] Samples were measured for luminescence with an integration time of 500 milliseconds. IL-1β concentrations of samples was determined by interpolation from a standard curve using 4-parameter logistic regression analysis. […]

[8] = 41.25 μM lipid with R848, FIG. 17

Compound | IL-6 in cell culture supernatant ([1]; human moDCs stimulated with R848, FIG. 10) | IL-6 secretion ([1]; human moDCs, R848 with vehicle, no hyperactivating lipid, FIG. 16) | cytokine and chemokine release in the serum [2] | IFNα2 ([3]; donor HD92) | IFNα2 ([3]; donor HD93) | IL-12p70 ([3]; donors HD92 and HD93, FIG. 32C) | IL-1β [4] | solubility [5] | IL-1β secretion [6, 8] | IL-1β secretion ([6]; 41.25 μM lipid with R848 vs vehicle control, FIG. 8) | IL-1β secretion ([6]; 41.3 uM lipid with R848, FIG. 11) | IL-1β secretion ([6]; 24 hours, lipid (equimolar, in 0.5% KP407) with R848, FIG. 1B) | IL-1β secretion ([6]; 24 hours, lipid in 4% KP407 with R848, FIG. 2B) | cell viability [7] | hyperactivation of human dendritic cells ([6]; 41.25 μM lipid with R848 (Compound 1 also 20.6 μM)) | IL-1β secretion ([6]; 20.6 μM lipid, FIG. 20) | IL-1β secretion ([6]; 24 hours, lipid (equimolar, in 0.5% KP407) with R848, FIG. 1B, listed as DGPC)
CCOCc1nc2c(N)nc3ccccc3c2n1CC(C)(C)O [Compound R848, resiquimod, reference compound] | greater than 20,000 μg/mL | approximately 20,000 μg/mL | returned to homeostasis (PBS levels) by 24 hours post injection | 94 µg/mL | 82 µg/mL | at least 100 μg/mL | 288 µg/mL | – | – | – | – | – | – | – | – | – | –
1-behenoyl-2-hydroxy-sn-glycero-3-phosphocholine [22:0 lyso PC, reference compound] | – | – | – | – | – | – | – | can be dissolved in ethanol, methanol, or chloroform | significant increase in IL-1β | produced significantly more IL-1β | robustly induced IL-113 secretion | IL-1β was secreted | induced a detectable amount of IL-1β | – | – | – | –
CCCCCCCCCCCCCCCCCCCCCCOC[C@@H](O)COP(=O)([O-])OCC[N+](C)(C)C [Compound 1, 1-docosyl-sn-glycerol-3-phosphocholine] | – | – | – | – | – | – | – | can be dissolved in ethanol, methanol, or chloroform | significantly increased IL-1β secretion | – | – | – | – | > 75% | hyperactivated dendritic cells | induced IL-1β secretion that was dependent upon R848 stimulation and the NLRP3 inflammasome | also induced IL-1β secretion; also recorded: induced less IL-1β than 22:0 lyso PC
